Results as given in US7365231B2, “Compound with antitumor activity and preparation method therefor” (National Taiwan University of Science & Technology, priority 2005, dated 2008).

Experiments:
[1] = system: human colon cancer Colo 205 xenografts; assay: In vivo antiproliferation, colon cancer xenografts, DPA once a week; set-up: species or system ICR nude mice; conditions: for tumor size compared to vehicle control: end point
Method: (§1) We further examined whether DPA is also effective in vivo after tumor formation. For compare the in vivo antitumor activity with DPD (DPA analogue), we followed the method of our previous study (Br. J Cancer 2003; 89: 1995-2003), and the similar doses were used. Cancer cells were transplanted into ICR nude mice, and when the tumors were palpable (2-4 mm), the mice were treated either with vehicle control or DPA (20-80 mg kg^−1, i.p., once a week). […] Its tumor size (48.6 mm^2) was about 3-fold larger than the average tumor size (16.7 mm^2) of the other DPA 80 mg kg^−1-treated mice at 7 days after the initial treatment. […] (ii) DPA presented the dose-specific effect for antitumor activity on human colon cancer xenografts. The dose-specific phenomenon was also found in vitro study of DPA-induced cell cycle arrest on Colo 205 cells as shown in Table 3.

[2] = Toxicity and body weight in nude mice, DPA once a week; type: in vivo; conditions: DPA 20-80 mg kg^−1, i.p.
Method: as §1

Colo 205 cells = assay: Cell cycle analysis by flow cytometry; type: cell-based, human

SMILES: Nc1ccc(Oc2ccc(C3(c4ccc(Oc5ccc(N)c(O)c5)cc4)C4CC5CC(C4)CC3C5)cc2)cc1O [DPA, 2,2-bis(4-(4-amino-3-hydroxyphenoxy)phenyl)adamantane]
- concentration of maximum in vivo antitumor effect ([1]; Colo 205 xenografts, i.p.): about 40 mg kg^−1 week^−1
- tumor size compared to vehicle control ([1]; DPA 20 mg kg^−1 i.p. once a week): not significantly decreased
- tumor size compared to control groups ([1]; DPA 40 mg kg^−1 i.p. once a week): significantly (P<0.05) decreased
- average tumor size ([1]; DPA 40 mg kg^−1 i.p. once a week, end of study (control 81.5)): 29.6 mm^2
- tumor size of one mouse with abnormally large tumor ([1]; DPA 80 mg kg^−1, 7 days after initial treatment): 48.6 mm^2
- average tumor size of the other mice ([1]; DPA 80 mg kg^−1, 7 days after initial treatment, without the outlier mouse): 16.7 mm^2
- tumor size compared to vehicle control ([1]; DPA 80 mg kg^−1 i.p. once a week): not significantly decreased
- body weight [2]: No significant reduction in body weight
- G0/G1 cell-cycle arrest and apoptosis (Colo 205 cells; Colo205): G0/G1 cell-cycle arrest without concomitant apoptosis
- cells in G1 phase (Colo 205 cells; Colo 205, 2 μM DPA for 48-72 h): 84.1-87.1%
- cells in G2/M phase (Colo 205 cells; Colo 205, 2 μM DPA for 48-72 h): 5.1-5.6%
- cells in S phase (Colo 205 cells; Colo 205, 2 μM DPA for 48-72 h): 7.8-10.3%
- G0/G1(%) (Colo 205 cells; Colo 205, DPA 1 μM, 24 h): 58.9%
- G2/M(%) (Colo 205 cells; Colo 205, DPA 1 μM, 24 h): 12.0%
- S(%) (Colo 205 cells; Colo 205, DPA 1 μM, 24 h): 29.0%
- G0/G1(%) (Colo 205 cells; Colo 205, DPA 1 μM, 48 h): 53.3%
- G2/M(%) (Colo 205 cells; Colo 205, DPA 1 μM, 48 h): 7.6%
- S(%) (Colo 205 cells; Colo 205, DPA 1 μM, 48 h): 39.0%
- G0/G1(%) (Colo 205 cells; Colo 205, DPA 1 μM, 72 h): 60.3%
- G0/G1(%) (Colo 205 cells; Colo 205, DPA 2 μM, 24 h): 67.1%
- G2/M(%) (Colo 205 cells; Colo 205, DPA 2 μM, 24 h): 48.3%
- S(%) (Colo 205 cells; Colo 205, DPA 2 μM, 24 h): 24.1%
- G0/G1(%) (Colo 205 cells; Colo 205, DPA 2 μM, 48 h): 84.1%
- G2/M(%) (Colo 205 cells; Colo 205, DPA 2 μM, 48 h): 5.6%
- S(%) (Colo 205 cells; Colo 205, DPA 2 μM, 48 h): 10.3%
- G0/G1(%) (Colo 205 cells; Colo 205, DPA 2 μM, 72 h): 87.1%
- G2/M(%) (Colo 205 cells; Colo 205, DPA 2 μM, 72 h): 5.1%
- S(%) (Colo 205 cells; Colo 205, DPA 2 μM, 72 h): 7.8%
- G0/G1(%) (Colo 205 cells; Colo 205, DPA 4 μM, 24 h): 67.5%
- G2/M(%) (Colo 205 cells; Colo 205, DPA 4 μM, 24 h): 8.2%
- S(%) (Colo 205 cells; Colo 205, DPA 4 μM, 24 h): 24.3%
- G0/G1(%) (Colo 205 cells; Colo 205, DPA 4 μM, 48 h): 71.6%
- G2/M(%) (Colo 205 cells; Colo 205, DPA 4 μM, 48 h): 10.4%
- S(%) (Colo 205 cells; Colo 205, DPA 4 μM, 48 h): 18.1%
- G0/G1(%) (Colo 205 cells; Colo 205, DPA 4 μM, 72 h): 76.3%
- G2/M(%) (Colo 205 cells; Colo 205, DPA 4 μM, 72 h): 10.3%
- S(%) (Colo 205 cells; Colo 205, DPA 4 μM, 72 h): 13.4%
- G0/G1(%) (Colo 205 cells; Colo 205, DPA 8 μM, 24 h): 70.5%
- G2/M(%) (Colo 205 cells; Colo 205, DPA 8 μM, 24 h): 5.2%
- S(%) (Colo 205 cells; Colo 205, DPA 8 μM, 24 h): 24.3%
- G0/G1(%) (Colo 205 cells; Colo 205, DPA 8 μM, 48 h): 70.6%
- G2/M(%) (Colo 205 cells; Colo 205, DPA 8 μM, 48 h): 5.2%
- S(%) (Colo 205 cells; Colo 205, DPA 8 μM, 48 h): 24.1%
- G0/G1(%) (Colo 205 cells; Colo 205, DPA 8 μM, 72 h): 70.7%
- G2/M(%) (Colo 205 cells; Colo 205, DPA 8 μM, 72 h): 3.4%
- S(%) (Colo 205 cells; Colo 205, DPA 8 μM, 72 h): 25.8%
